From US11547697B2, “Heterocyclic compounds and uses thereof” (MILLENNIUM PHARMACEUTICALS, INC., priority 2009, dated 2023)
Like-named read-outs stand apart in the source and are kept apart here.

What was measured:
Assay type in all cases: biochemical
p110β/p85α = p110β/p85α (Homo sapiens (Human), UniProt P42338); experiment: PI 3-Kinase (human) HTRF assay, p110β/p85α
Experimental: An exemplary system is PI 3-Kinase (human) HTRF™ Assay from Upstate. […] Briefly, the assay is a time resolved FRET assay that indirectly measures PIP3 product formed by the activity of a PI3-K. The kinase reaction is performed in a microtitre plate (e.g., a 384 well microtitre plate). The total reaction volume is approximately 20 ul per well. In the first step, each well receives 2 ul of test compound in 20% dimethylsulphoxide resulting in a 2% DMSO final concentration. Next, approximately 14.5 ul of a kinase/PIP2 mixture (diluted in 1× reaction buffer) is added per well for a final concentration of 0.25-0.3 ug/ml kinase and 10 μM PIP2. The plate is sealed and incubated for 15 minutes at room temperature. To start the reaction, 3.5 ul of ATP (diluted in 1× reaction buffer) is added per well for a final concentration of 10 μM ATP. The plate is sealed and incubated for 1 hour at room temperature. The reaction is stopped by adding 5 ul of Stop Solution per well and then 5 ul of Detection Mix is added per well. The plate is sealed, incubated for 1 hour at room temperature, and then read on an appropriate plate reader. Data is analyzed and IC50s are generated using GraphPad Prism 5. […] For PI3K α, β, δ, and γ, the nM concentration of inhibitor to reach IC50 is provided.

p110δ/p85α = p110δ/p85α (Homo sapiens (Human), UniProt O00329); experiment: PI 3-Kinase (human) HTRF assay, p110δ/p85α
p110γ = p110γ (Homo sapiens (Human), UniProt P48736); experiment: PI 3-Kinase (human) HTRF assay, p110γ
Chain of p110γ (P48736 whole entry): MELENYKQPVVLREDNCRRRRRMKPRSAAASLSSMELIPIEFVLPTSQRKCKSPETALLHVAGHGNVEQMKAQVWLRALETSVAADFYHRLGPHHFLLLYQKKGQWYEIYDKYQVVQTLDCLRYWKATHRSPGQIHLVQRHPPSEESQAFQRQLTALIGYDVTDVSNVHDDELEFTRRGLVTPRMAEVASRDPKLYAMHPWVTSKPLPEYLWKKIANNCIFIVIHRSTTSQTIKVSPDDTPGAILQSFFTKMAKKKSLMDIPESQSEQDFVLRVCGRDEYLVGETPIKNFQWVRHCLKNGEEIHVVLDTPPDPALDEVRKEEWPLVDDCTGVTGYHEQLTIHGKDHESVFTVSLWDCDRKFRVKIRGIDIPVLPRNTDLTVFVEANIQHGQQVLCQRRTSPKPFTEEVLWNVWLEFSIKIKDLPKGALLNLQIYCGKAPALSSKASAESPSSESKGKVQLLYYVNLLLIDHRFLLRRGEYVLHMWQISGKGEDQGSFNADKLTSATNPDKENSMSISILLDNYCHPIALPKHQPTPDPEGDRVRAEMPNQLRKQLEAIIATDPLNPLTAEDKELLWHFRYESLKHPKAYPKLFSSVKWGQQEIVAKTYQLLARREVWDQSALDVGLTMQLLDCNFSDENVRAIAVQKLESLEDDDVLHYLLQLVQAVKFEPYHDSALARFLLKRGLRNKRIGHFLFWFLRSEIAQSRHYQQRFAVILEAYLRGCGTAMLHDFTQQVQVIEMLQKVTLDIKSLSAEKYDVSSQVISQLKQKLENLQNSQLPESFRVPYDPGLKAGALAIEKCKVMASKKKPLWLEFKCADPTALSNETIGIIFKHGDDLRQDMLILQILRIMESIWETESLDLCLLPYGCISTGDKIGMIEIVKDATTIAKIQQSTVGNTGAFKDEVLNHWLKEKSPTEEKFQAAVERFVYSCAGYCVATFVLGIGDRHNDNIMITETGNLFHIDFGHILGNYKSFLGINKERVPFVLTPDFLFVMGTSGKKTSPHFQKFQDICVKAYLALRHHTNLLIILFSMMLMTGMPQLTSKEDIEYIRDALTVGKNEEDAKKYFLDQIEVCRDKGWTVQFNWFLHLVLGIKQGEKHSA

p110α/p85α = p110α/p85α (Homo sapiens (Human), UniProt P42336); experiment: PI 3-Kinase (human) HTRF assay, p110α/p85α
Chain of p110α/p85α (P42336 whole entry): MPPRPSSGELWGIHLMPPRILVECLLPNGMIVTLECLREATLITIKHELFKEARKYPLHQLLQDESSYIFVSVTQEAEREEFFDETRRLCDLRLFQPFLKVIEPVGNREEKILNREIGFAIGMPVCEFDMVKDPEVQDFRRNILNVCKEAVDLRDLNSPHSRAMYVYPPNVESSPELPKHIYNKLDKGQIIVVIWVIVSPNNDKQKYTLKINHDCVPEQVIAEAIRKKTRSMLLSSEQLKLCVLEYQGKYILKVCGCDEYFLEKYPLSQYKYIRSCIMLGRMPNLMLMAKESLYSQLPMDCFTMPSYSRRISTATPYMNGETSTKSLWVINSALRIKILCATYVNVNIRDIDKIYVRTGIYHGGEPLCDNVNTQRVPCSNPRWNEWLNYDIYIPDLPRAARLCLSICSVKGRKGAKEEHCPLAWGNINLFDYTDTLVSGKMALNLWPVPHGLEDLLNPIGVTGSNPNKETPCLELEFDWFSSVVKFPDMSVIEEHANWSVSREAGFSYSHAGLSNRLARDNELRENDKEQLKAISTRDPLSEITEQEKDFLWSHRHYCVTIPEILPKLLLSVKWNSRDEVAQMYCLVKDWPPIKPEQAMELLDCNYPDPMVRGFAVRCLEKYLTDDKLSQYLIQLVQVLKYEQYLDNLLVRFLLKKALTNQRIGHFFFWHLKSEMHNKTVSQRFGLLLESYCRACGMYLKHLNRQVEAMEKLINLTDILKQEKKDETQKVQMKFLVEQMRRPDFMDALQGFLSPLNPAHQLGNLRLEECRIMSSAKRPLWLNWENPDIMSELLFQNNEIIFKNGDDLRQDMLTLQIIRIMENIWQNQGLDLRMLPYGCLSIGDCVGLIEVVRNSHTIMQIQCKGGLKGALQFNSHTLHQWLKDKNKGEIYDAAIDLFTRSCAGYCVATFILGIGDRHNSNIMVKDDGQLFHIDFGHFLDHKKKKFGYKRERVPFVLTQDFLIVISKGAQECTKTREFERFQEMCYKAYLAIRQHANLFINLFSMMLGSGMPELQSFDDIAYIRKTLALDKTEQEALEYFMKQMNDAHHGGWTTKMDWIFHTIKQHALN
Chain of p110α/p85α (P27986 whole entry partner): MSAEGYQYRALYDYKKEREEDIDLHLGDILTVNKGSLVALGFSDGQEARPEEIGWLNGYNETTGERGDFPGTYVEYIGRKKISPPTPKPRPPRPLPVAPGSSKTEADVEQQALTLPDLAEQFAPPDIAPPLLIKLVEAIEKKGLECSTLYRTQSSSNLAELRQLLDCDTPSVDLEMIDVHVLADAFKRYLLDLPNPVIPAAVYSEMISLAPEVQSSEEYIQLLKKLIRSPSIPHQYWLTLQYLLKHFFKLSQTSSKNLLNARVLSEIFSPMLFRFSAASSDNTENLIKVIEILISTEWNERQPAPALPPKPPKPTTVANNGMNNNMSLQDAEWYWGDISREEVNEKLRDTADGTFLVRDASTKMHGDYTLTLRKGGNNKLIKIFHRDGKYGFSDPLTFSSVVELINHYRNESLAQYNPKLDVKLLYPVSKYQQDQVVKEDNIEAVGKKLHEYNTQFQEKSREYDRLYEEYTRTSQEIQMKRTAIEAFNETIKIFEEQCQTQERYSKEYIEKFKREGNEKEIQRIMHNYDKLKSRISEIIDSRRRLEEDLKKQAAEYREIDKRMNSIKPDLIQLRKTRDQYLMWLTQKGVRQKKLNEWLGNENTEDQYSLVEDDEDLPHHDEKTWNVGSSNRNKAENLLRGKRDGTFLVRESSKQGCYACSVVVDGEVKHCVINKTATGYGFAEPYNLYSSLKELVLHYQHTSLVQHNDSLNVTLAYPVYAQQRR

[1] = in vitro, read-out: PI3K β IC50
[2] = in vitro, read-out: PI3K δ IC50
[3] = in vitro, read-out: PI3K γ IC50
[4] = in vitro, read-out: PI3K α IC50

Chain of p110δ/p85α (O00329 whole entry): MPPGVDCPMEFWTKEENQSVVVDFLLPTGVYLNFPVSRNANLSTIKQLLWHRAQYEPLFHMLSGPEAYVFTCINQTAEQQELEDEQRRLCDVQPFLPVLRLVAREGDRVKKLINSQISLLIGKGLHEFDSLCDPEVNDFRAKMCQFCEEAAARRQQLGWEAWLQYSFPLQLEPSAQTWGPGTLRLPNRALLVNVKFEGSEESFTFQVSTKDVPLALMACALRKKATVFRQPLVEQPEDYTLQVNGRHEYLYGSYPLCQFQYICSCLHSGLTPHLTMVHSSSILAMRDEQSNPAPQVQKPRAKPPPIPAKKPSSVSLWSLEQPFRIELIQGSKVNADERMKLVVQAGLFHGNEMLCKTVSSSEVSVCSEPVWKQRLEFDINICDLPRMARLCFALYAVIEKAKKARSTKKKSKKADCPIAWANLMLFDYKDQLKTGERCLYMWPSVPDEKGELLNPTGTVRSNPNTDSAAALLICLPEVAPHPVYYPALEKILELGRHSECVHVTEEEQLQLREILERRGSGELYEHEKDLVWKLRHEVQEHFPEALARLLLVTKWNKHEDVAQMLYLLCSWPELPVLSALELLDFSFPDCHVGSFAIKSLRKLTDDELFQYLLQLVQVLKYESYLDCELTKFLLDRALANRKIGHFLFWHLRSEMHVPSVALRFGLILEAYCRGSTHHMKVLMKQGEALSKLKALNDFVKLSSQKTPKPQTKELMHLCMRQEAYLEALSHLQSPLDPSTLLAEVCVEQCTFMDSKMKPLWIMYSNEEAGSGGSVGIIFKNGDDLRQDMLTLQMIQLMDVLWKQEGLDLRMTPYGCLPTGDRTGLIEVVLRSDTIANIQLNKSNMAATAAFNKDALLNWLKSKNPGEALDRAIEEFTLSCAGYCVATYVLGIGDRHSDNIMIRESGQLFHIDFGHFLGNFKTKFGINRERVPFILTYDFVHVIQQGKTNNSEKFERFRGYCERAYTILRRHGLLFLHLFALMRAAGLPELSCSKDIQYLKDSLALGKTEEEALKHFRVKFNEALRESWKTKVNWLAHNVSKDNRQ
Chain of p110δ/p85α (P27986 whole entry partner): as the sequence (P27986 whole entry partner) above
Chain of p110β/p85α (P42338 whole entry): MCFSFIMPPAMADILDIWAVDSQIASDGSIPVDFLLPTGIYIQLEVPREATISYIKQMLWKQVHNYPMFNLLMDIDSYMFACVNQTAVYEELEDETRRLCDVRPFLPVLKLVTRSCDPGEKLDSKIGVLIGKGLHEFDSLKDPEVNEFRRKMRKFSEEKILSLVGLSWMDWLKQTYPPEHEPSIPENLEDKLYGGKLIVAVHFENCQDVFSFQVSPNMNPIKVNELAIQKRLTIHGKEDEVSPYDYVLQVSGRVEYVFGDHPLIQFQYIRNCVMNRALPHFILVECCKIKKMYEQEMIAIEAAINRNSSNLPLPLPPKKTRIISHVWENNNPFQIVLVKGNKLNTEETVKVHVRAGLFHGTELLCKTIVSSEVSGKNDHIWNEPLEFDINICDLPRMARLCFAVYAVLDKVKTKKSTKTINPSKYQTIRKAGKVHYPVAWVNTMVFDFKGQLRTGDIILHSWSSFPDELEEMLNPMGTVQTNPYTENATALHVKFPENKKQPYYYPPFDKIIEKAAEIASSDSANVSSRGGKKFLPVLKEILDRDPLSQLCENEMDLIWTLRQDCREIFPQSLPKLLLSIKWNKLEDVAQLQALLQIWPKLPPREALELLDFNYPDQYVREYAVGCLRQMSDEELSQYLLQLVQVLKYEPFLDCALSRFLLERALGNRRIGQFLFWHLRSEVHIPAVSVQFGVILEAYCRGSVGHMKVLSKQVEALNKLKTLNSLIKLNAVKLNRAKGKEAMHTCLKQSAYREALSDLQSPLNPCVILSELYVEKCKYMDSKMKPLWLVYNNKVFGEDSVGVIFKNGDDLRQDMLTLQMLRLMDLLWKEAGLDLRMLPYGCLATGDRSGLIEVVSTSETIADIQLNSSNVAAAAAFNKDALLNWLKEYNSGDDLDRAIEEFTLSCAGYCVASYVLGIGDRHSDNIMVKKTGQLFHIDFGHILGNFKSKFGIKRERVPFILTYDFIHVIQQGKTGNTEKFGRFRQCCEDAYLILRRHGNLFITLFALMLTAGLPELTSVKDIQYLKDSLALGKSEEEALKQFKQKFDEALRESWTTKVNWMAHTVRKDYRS
Chain of p110β/p85α (P27986 whole entry partner): as the sequence (P27986 whole entry partner) above

SMILES | IC50 (p110β/p85α; [1]) [µM] | IC50 (p110δ/p85α; [2]) [µM] | IC50 (p110γ; [3]) [µM] | IC50 (p110α/p85α; [4]) [µM] | IC50 (p110β/p85α; read-out: PI3K β In Vitro IC50) [µM] | IC50 (p110δ/p85α; read-out: PI3K δ In Vitro IC50) [µM] | IC50 (p110γ; read-out: PI3K γ In Vitro IC50) [µM] | IC50 (p110α/p85α; read-out: PI3K α In Vitro IC50) [µM]
CCN1CCN(C2CN(c3cnc4ccc(-c5ccc6oc(N)nc6c5)cc4n3)C2)CC1 [compound 329] | < 1 | < 1 | < 10 | < 0.1 | – | – | – | –
CC(C)N1CCN(C2CN(c3cnc4ccc(-c5ccc6oc(N)nc6c5)cc4n3)C2)CC1 [compound 331] | < 10 | < 10 | < 10 | < 0.1 | – | – | – | –
C[C@H]1CN(c2cnc3ccc(-c4ccc5oc(N)nc5c4)cc3n2)CCN1C [compound 332] | < 0.1 | < 10 | < 1 | < 1 | – | – | – | –
Cc1cn(C2CN(c3cnc4ccc(-c5ccc6oc(N)nc6c5)cc4n3)C2)cn1 [compound 339] | < 1 | < 1 | < 1 | < 0.1 | – | – | – | –
Cc1nccn1C1CCN(c2cnc3ccc(-c4ccc5oc(N)nc5c4)cc3n2)CC1 [compound 344] | < 10 | < 1 | < 10 | < 0.1 | – | – | – | –
Cc1cc(-c2ccc3oc(N)nc3c2)cc2c(C(=O)N3CCOCC3)cnn12 [compound 357] | < 10 | < 10 | < 1 | < 1 | – | – | – | –
Nc1nc2cc(-c3ccc4ncc(N5CC(N6CCOCC6)C5)nc4c3)cc(Cl)c2o1 [compound 358] | < 1 | < 1 | < 1 | < 0.1 | – | – | – | –
Nc1nc2cc(-c3ccc4ncc(C(=O)N5CCOCC5)n4c3)cc(Cl)c2o1 [compound 359] | < 1 | < 10 | < 0.1 | < 0.1 | – | – | – | –
Nc1nc2cc(-c3ccc4ncc(C(=O)N5CCOCC5)n4c3)cc(F)c2o1 [compound 360] | < 1 | < 10 | < 0.1 | < 0.1 | – | – | – | –
Nc1nc2cc(-c3ccc4ncc(N5CC(N6CCOCC6)C5)nc4c3)cc(F)c2o1 [compound 361] | < 1 | < 10 | < 1 | < 0.1 | – | – | – | –
Cc1cc(-c2ccc3ncc(N4CC(N5CCOCC5)C4)nc3c2)cc2nc(N)oc12 [compound 365] | < 10 | < 10 | < 10 | < 10 | – | – | – | –
Nc1nc2cc(-c3ccc4ncc(N5CC(N)C5)nc4c3)ccc2o1 [compound 367] | < 1 | < 10 | < 1 | < 1 | – | – | – | –
Cc1cc(-c2ccc3oc(N)nc3c2)cc2c(C(=O)N3CCCC3)cnn12 [compound 368] | < 10 | < 1 | < 1 | < 0.1 | – | – | – | –
Nc1nc2cc(-c3ccc4ncc(C(=O)N5CCOCC5)n4c3)c(F)cc2o1 [compound 372] | < 10 | < 10 | < 10 | < 1 | – | – | – | –
Nc1nc2cc(-c3ccc4ncc(N5CC(N6CCOCC6)C5)nc4c3)c(F)cc2o1 [compound 373] | < 10 | < 10 | < 10 | < 0.1 | – | – | – | –
Nc1nc2cc(-c3ccc4ncc(N5CC[C@H](N6CCOCC6)C5)nc4c3)ccc2o1 [compound 375] | < 10 | < 1 | < 1 | < 1 | – | – | – | –
Nc1nc2cc(-c3ccc4ncc(N5CC[C@@H](N6CCOCC6)C5)nc4c3)ccc2o1 [compound 376] | < 10 | < 10 | < 0.1 | < 0.1 | – | – | – | –
CN1CCN([C@H]2CCN(c3cnc4ccc(-c5ccc6oc(N)nc6c5)cc4n3)C2)CC1 [compound 381] | < 1 | < 10 | < 10 | < 0.1 | – | – | – | –
CN(C)[C@H]1CCN(c2cnc3ccc(-c4ccc5oc(N)nc5c4)cc3n2)C1 [compound 382] | < 1 | < 10 | < 1 | < 0.1 | – | – | – | –

SMILES | IC50 (p110β/p85α; [1]) [µM] | IC50 (p110δ/p85α; [2]) [µM] | IC50 (p110γ; [3]) [µM] | IC50 (p110α/p85α; [4]) [µM] | IC50 (p110β/p85α; read-out: PI3K β In Vitro IC50) [µM] | IC50 (p110δ/p85α; read-out: PI3K δ In Vitro IC50) [µM] | IC50 (p110γ; read-out: PI3K γ In Vitro IC50) [µM] | IC50 (p110α/p85α; read-out: PI3K α In Vitro IC50) [µM]
Nc1nc2cc(-c3ccc4ncc(N5CCn6cccc6C5)nc4c3)ccc2o1 [compound 394] | < 0.1 | < 1 | < 0.1 | < 0.1 | – | – | – | –
Cc1cc(-c2ccc3oc(N)nc3c2)cc2c(-c3ccncc3)cnn12 [compound 397] | – | – | – | – | < 1 | < 1 | < 0.1 | < 0.1
Nc1nc2cc(-c3ccn4ncc(C(=O)N5CCC(N6CCOCC6)CC5)c4c3)ccc2o1 [compound 398] | – | – | – | – | < 10 | < 10 | < 10 | < 1
CC(Oc1nc(-c2ccc3ncc(C(=O)N4CCOCC4)n3c2)cnc1N)C(F)(F)F (centres unmarked) [compound 411] | – | – | – | – | < 10 | < 10 | < 1 | < 0.1
Nc1nc2cc(-c3ccc4ncc(N5CCNC(C(F)F)C5)nc4c3)ccc2o1 (centres unmarked) [compound 413] | – | – | – | – | < 1 | < 10 | < 1 | < 0.1
COc1ncc(-c2ccc3ncc(C(=O)N4CCOCC4)n3c2)cc1NS(C)(=O)=O [compound 416] | – | – | – | – | < 10 | < 10 | < 1 | < 0.1
COc1ncc(-c2ccc3ncc(C(=O)N4CCOCC4)n3c2)cc1NS(=O)(=O)c1ccc(F)cc1 [compound 421] | – | – | – | – | < 1 | < 0.1 | < 0.1 | < 0.1
COc1ncc(-c2ccc3ncc(C(=O)N4CCOCC4)n3c2)cc1NS(=O)(=O)c1ccccc1F [compound 422] | – | – | – | – | < 10 | < 1 | < 0.1 | < 0.1
COc1ncc(-c2ccc3ncc(C(=O)N4CCOCC4)n3c2)cc1NS(=O)(=O)c1cccc(F)c1 [compound 423] | – | – | – | – | < 1 | < 0.1 | < 0.1 | < 0.1
Nc1nc2ccc(-c3cc(F)c4oc(N)nc4c3)cc2o1 [compound 433] | – | – | – | – | < 1 | < 10 | < 0.1 | < 1
CC(=O)Nc1nc2ccc(-c3cc(F)c4oc(N)nc4c3)cc2s1 [compound 434] | – | – | – | – | < 0.1 | < 0.1 | < 0.1 | < 0.1
Nc1nc2cc(-c3ccc4nc(N)sc4c3)cc(F)c2o1 [compound 436] | – | – | – | – | < 0.1 | < 1 | < 0.1 | < 0.1
O=C(c1cnc2ccc(-c3ccc(Cl)c(NS(=O)(=O)c4ccc(F)cc4F)c3)cn12)N1CCOCC1 [compound 461] | – | – | – | – | < 10 | < 10 | < 10 | < 1
CO[C@H]1CCN(C(=O)c2cnc3ccc(-c4ccc5oc(N)nc5c4)cn23)C1 [compound 463] | – | – | – | – | < 10 | < 10 | < 1 | < 0.1
Nc1nc2cc(-c3ccc4ncc(C(=O)N5CC[C@@H](N6CCOCC6)C5)n4c3)ccc2o1 [compound 466] | – | – | – | – | < 10 | < 10 | < 1 | < 1
C[C@@H]1CCCN1C(=O)c1cnc2ccc(-c3ccc4oc(N)nc4c3)cn12 [compound 481] | – | – | – | – | < 10 | < 10 | < 1 | < 0.1
CC(C)N1CCC(n2cnc3ccc(-c4cncc(NS(=O)(=O)c5ccc(F)cc5F)c4)cc3c2=O)CC1 [compound 519] | – | – | – | – | < 10 | < 10 | < 1 | < 1
CC(C)N1CCC(n2cnc3ccc(-c4cnc(Cl)c(NS(=O)(=O)c5ccccc5)c4)cc3c2=O)CC1 [compound 521] | – | – | – | – | < 0.1 | < 0.1 | < 1 | < 0.1
COc1ncc(-c2ccc3ncn(C4CCN(C)CC4)c(=O)c3c2)cc1NS(C)(=O)=O [compound 525] | – | – | – | – | < 1 | < 0.1 | < 10 | < 0.1
